IC50 and Ki data for 39 compounds are collected here from patent publication US9340500B2, “Aromatic heterocyclic derivative having TRPV4-inhibiting activity” (SHIONOGI & CO., LTD., priority 2011, dated 2016).

The target in the test is human TRPV4 (Homo sapiens (Human), UniProt Q9HBA0). Description: Test Example 1: measurement of TRPV4 inhibitory activity (Fluo 4-AM, FLIPR TETRA, 4α-PDD 1 μmol/L). The test is classed as cell-based. The note with it: hTRPV4/CHO cells; for IC50: 4α-PDD 1 μmol/L; for Ki: calculated from IC50 and 4α-PDD EC50. The protocol: For each compound, TRPV4 inhibitory activity was measured using cells.
(1) The TRPV4 inhibitory activity was measured using CHO-K1 cells stably expressing human TRPV4 (hTRPV4/CHO cells).
(2) In the day before the experimental day, frozen cell were thawed and washed with the culture medium (MEM-α, 10% FBS, 2 mmol/L GlutaMax, 50 unit Penicillin, 50 μg/mL Streptomycin). Then cells were suspended in the culture medium.
(3) The 384-well plates which hTRPV4/CHO cells were seeded at densities of 4000 cells/well in the culture medium and cultured in a CO2 incubator in the presence of 5% CO2 at 37° C. for overnight was used as assay plates.
(4) The assay plate was washed with assay buffer (Hanks, 20 mmol/L HEPES, 2.5 mmol/L probenecid, pH7.4), and the buffer were remained at 20 μL/well.
(5) 10 μl of dye loading buffer (9 μmol/L Fluo 4-AM, 0.09% Pluronic F-127/assay buffer) was added to each well, then the assay plate was incubated in a CO2 incubator in the presence of 5% CO2 at 37° C. for one hour. (final 3 μmol/L Fluo4-AM).
(6) The assay plate was washed with the assay buffer, and the buffers were remained at 20 μL/well. Then the assay plate was incubated for 10 min at room temperature.
(7) Diluted compound solution was dispensed to each well in the compound plate, and mixed with built-in Pipette and Mixer of the Fluorescence analysis system FLIPR TETRA (Molecular devices).
(8) After incubation for 5 min, 20 μL of 4α-PDD solution were applied to each well of assay plate and mixed with the FLIPR TETRA. (final 1 μmol/L 4α-PDD)
(9) The fluorescent intensity was measured with FLIPR TETRA system for 10 min from the point of time addition the compound solution, at Ex 470-495 nm, Em 515-575 nm wavelength.
TRPV4 inhibitory activity (IC50 value and Ki value) of a compound was evaluated according to the following procedure.
(10) In the presence of the compound, the difference between maximal and minimal of fluorescent intensity value for 5 min from just before addition of 4α-PDD solution was calculated, and it was referred as Max-Min value. Max-Min value of the Ruthenium Red at 20 μM was defined as 100% inhibitory activity, Max-Min value in the absence of the compound was defined as 0% inhibitory activity. The TRPV4 inhibitory activity of the compound was calculated by the following formula. (1−(Max-Min value of the compound−100% inhibitory activity)/(0% inhibitory activity−100% inhibitory activity))×100 (11) Inhibitory activity was calculated at 10 points with three fold serial dilution, in the final concentration of the compound from 10 μmmol/L to 0.5 nmol/L, the IC50 value was calculated by logistic approximation method. (12) In the absence of the compound, the fluorescent intensity was measured as the same method with 10, 1, 0.5, 0.2, and 0 μmol/L as final concentration of 4α-PDD. The difference of minimal and maximal fluorescent intensity value for 5 min from just before addition of 4α-PDD solution was calculated, and it was referred as Max-Min value. Max-Min value of the 4α-PDD at 10 μmol/L was defined as 100% activity, Max-Min value in the absence of 4α-PDD was defined as 0% activity. The TRPV4 activity of each concentration of 4α-PDD was calculated by the following formula. (Max-Min value of the each 4α-PDD concentration−0% activity)/(100% activity−0% activity))×100 (13) Effective activity was calculated in 5 concentrations of 4α-PDD the above. The EC50 value was calculated by logistic approximation method. The Ki value of a compound was calculated by the following formula. Ki (nmol/L)=IC50 value (nmol/L)/(1+[…] (test 4α-PDD concentration (nmol/L)/EC50 value (nmol/L))

human TRPV4, sequence (Q9HBA0 whole entry): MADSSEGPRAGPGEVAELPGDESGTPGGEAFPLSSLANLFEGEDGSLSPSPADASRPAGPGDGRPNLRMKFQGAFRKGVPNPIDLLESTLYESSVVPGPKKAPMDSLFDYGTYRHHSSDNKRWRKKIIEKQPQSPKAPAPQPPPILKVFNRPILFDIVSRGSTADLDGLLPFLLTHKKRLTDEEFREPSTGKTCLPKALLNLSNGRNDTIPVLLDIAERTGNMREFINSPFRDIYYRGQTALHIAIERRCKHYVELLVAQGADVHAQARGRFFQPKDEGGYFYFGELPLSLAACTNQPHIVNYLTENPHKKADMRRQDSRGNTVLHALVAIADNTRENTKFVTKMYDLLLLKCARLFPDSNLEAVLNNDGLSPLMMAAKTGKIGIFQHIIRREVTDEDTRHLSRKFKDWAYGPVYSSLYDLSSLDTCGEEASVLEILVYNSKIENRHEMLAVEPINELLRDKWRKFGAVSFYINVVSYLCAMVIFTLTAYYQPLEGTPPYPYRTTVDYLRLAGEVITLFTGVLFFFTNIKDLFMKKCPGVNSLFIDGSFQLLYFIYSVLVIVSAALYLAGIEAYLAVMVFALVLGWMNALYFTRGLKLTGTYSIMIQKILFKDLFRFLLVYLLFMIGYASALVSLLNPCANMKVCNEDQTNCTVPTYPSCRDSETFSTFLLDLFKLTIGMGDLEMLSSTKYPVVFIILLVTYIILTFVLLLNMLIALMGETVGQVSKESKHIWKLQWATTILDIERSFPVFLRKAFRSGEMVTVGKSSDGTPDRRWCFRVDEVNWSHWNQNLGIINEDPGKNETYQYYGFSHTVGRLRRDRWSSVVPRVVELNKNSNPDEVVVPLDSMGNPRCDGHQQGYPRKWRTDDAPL

With `Cc1c(C(=O)Nc2cccc(C(F)(F)F)c2)cc(C(C)(C)C)n1C1CCN(C2CCNCC2)CC1` [Compound I-109], the IC50 – broadly, the concentration that gives 50% inhibition – is 6300 nM; the Ki (in general, the dissociation constant of the complex between target and ligand, obtained from inhibition or displacement) is 2300 nM.
On the same counts, the results for `Cc1c(C(=O)Nc2cccc(C(F)(F)F)c2)cc(C(C)(C)C)n1C1CCN(CCO)CC1` [Compound I-110] are 6600 nM and 2400 nM.
As for `Cc1c(-c2nc3ccccc3o2)cc(C(C)(C)C)n1CCCN1CCNCC1` [Compound I-126], the IC50 turned out to be 4500 nM. This counts as single-digit micromolar.
Still for that read-out and setting: the value for `Cc1c(-c2nc3ccccc3[nH]2)cc(C(C)(C)C)n1CCCN1CCOCC1` [Compound I-127] was 3100 nM.
`Cc1c(C(=O)Nc2cccc(C(F)(F)F)c2)cc(C(C)(C)C)n1CC(C)(C)CN1CCNCC1` [Compound I-123]: the IC50 stood at 1400 nM and the inhibitory constant (Ki) was 450 nM.
On the same counts, the results for `Cc1c(C(=O)Nc2cccc(C(F)(F)F)c2)cc(C(C)(C)C)n1CCC(C)N1CCOCC1` (stereo not drawn) [Compound I-097] are 430 nM and 130 nM.
For the compound `Cc1c(C(=O)Nc2cccc(C(F)(F)F)c2)cc(C(C)(C)C)n1CCC(=O)N1CCOCC1` [Compound I-091], half-maximal inhibition (IC50) was put at 1500 nM and the Ki is 560 nM.
On the same counts, the results for `Cc1c(C(=O)Nc2cccc(C(F)(F)F)c2)cc(C(C)(C)C)n1[C@H]1CC[C@H](N(C)C)CC1` [Compound I-113] are 5800 nM and 1500 nM.
Take `CNCCCn1c(C(C)(C)C)cc(-c2nc3ccccc3[nH]2)c1C` [Compound I-129]: it took 6400 nM to reach half-maximal inhibition (IC50).
As to `Cc1c(S(=O)(=O)Nc2cccc(C(F)(F)F)c2)cc(C(C)(C)C)n1CCCN1CCOCC1` [Compound I-118], the IC50 came to 9200 nM and the Ki was 2500 nM.
On the same counts, the results for `CNC(=O)CCn1c(C(C)(C)C)cc(C(=O)Nc2cccc(C(F)(F)F)c2)c1C` [Compound I-092] are 6400 nM and 2400 nM.
`Cc1c(-c2nc3ccccc3[nH]2)cc(C(C)(C)C)n1CCCN1CCNCC1` [Compound I-128] came in with an IC50 of 5400 nM.
In the case of `CNCC(C)(C)Cn1c(C(C)(C)C)cc(C(=O)Nc2cccc(C(F)(F)F)c2)c1C` [Compound I-100], the midpoint of inhibition, the IC50, lay at 830 nM and the Ki was 290 nM.
On the same counts, the results for `Cc1c(C(=O)Nc2cccc(C(F)(F)F)c2)cc(C2CCN(C(=O)OCc3ccccc3)CC2)n1CCCN1CCOCC1` [Compound I-075] are 270 nM and 130 nM.
For `COC(=O)CN1CCC(n2c(C(C)(C)C)cc(C(=O)Nc3cccc(C(F)(F)F)c3)c2C)CC1` [Compound I-107], inhibition was half-maximal at 6600 nM (IC50) and the Ki is 2100 nM.
Turning to `Cc1c(C(=O)Nc2cccc(C(F)(F)F)c2)cc(C(C)(C)C)n1[C@H]1CC[C@H](N)CC1` [Compound I-111], the IC50 is 4100 nM and the Ki is 1500 nM.
`Cc1c(C(=O)Nc2cccc(C(F)(F)F)c2)cc(C(C)(C)C)n1C1CCN(C)CC1` [Compound I-106]: the IC50 was found to be 3900 nM and the inhibition constant Ki is 1200 nM.
On the same counts, the results for `CC(=O)N1CCC(n2c(C(C)(C)C)cc(C(=O)Nc3cccc(C(F)(F)F)c3)c2C)CC1` [Compound I-101] are 7400 nM and 2600 nM.
Take `Cc1c(C(=O)Nc2cccc(C(F)(F)F)c2)cc(C(C)(C)C)n1CCS(=O)(=O)N1CCOCC1` [Compound I-095]: the midpoint of inhibition, the IC50, lay at 970 nM and the Ki is 380 nM.
As for `Cc1c(C(=O)Nc2cccc(C(F)(F)F)c2)cc(C(C)(C)C)n1CC(C)(C)CN1CCOCC1` [Compound I-108], the IC50 amounted to 540 nM and the Ki was 170 nM.
On the same counts, the results for `CCOC(=O)CCn1c(C(C)(C)C)cc(C(=O)Nc2cccc(C(F)(F)F)c2)c1C` [Compound I-090] are 1100 nM and 380 nM.
On the same counts, the results for `Cc1c(C(=O)Nc2cccc(C(F)(F)F)c2)cc(C(C)(C)C)n1[C@H]1CC[C@H](NS(C)(=O)=O)CC1` [Compound I-114] are 8700 nM and 2300 nM.
On the same counts, the results for `CNCC(F)(F)Cn1c(C(C)(C)C)cc(C(=O)Nc2cccc(C(F)(F)F)c2)c1C` [Compound I-121] are 1400 nM and 450 nM.
With `CNS(=O)(=O)CCn1c(C(C)(C)C)cc(C(=O)Nc2cccc(C(F)(F)F)c2)c1C` [Compound I-094], the IC50 worked out at 6100 nM and the Ki was 2200 nM.
For the compound `Cc1c(S(=O)(=O)NCc2cccc(C(F)(F)F)c2)cc(C(C)(C)C)n1CCCN1CCOCC1` [Compound I-104], the IC50 was determined as 7700 nM and the Ki was 2700 nM.
As to `Cc1c(C(=O)Nc2cccc(C(F)(F)F)c2)cc(C(C)(C)C)n1[C@H]1CC[C@@H](N(C)S(C)(=O)=O)CC1` [Compound I-120], half-maximal inhibition (IC50) required 3500 nM and the Ki was 1100 nM.
As to `Cc1c(C(=O)Nc2cccc(C(F)(F)F)c2)cc(C(C)(C)C)n1[C@H]1CC[C@@H](N)CC1` [Compound I-116], the IC50 stood at 5300 nM and the Ki is 1500 nM.
On the same counts, the results for `Cc1c(C(=O)Nc2cccc(C(F)(F)F)c2)cc(C(C)(C)C)n1C1CCN(S(C)(=O)=O)CC1` [Compound I-102] are 4200 nM and 1500 nM.
Turning to `Cc1c(C(=O)Nc2cccc(C(F)(F)F)c2)cc(C(C)(C)C)n1CCC(C)N1CCNCC1` (stereo not drawn) [Compound I-124], the IC50 was 260 nM.
Same read-out and setting: the value for `Cc1c(C(=O)Nc2cccc(C(F)(F)F)c2)cc(C(C)(C)C)n1CC(F)(F)CN1CCNCC1` [Compound I-125] was 1500 nM.
For the compound `Cc1c(C(=O)Nc2cccc(C(F)(F)F)c2)cc(C(C)(C)C)n1CCC(=O)N1CCNCC1` [Compound I-093], 1400 nM corresponded to half-maximal inhibition (IC50) and the inhibition constant (Ki) is 530 nM.
On the same counts, the results for `Cc1c(C(=O)Nc2cccc(C(F)(F)F)c2)cc(C(C)(C)C)n1CCS(=O)(=O)N1CCNCC1` [Compound I-098] are 1900 nM and 590 nM.
On the same counts, the results for `Cc1c(C(=O)Nc2cccc(C(F)(F)F)c2)cc(C(C)(C)C)n1C1CCNCC1` [Compound I-099] are 5900 nM and 2100 nM.
On the same counts, the results for `Cc1c(C(=O)Nc2cccc(C(F)(F)F)c2)cc(C(C)(C)C)n1CC(F)(F)CN1CCOCC1` [Compound I-122] are 780 nM and 240 nM.
On to `Cc1c(C(=O)Nc2cccc(C(F)(F)F)c2)cc(C2CCCCC2)n1CCCN1CCOCC1` [Compound I-072], for which the midpoint of inhibition, the IC50, lay at 45 nM and the Ki is 21 nM.
`CN[C@H]1CC[C@H](n2c(C(C)(C)C)cc(C(=O)Nc3cccc(C(F)(F)F)c3)c2C)CC1` [Compound I-112]: inhibition was half-maximal at 5600 nM (IC50) and the Ki was 1500 nM.
On the same counts, the results for `Cc1c(C(=O)Nc2cccc(C(F)(F)F)c2)cc(C(C)(C)C)n1[C@H]1CC[C@@H](NS(C)(=O)=O)CC1` [Compound I-115] are 6000 nM and 1600 nM.
`CNC(C)CCn1c(C(C)(C)C)cc(C(=O)Nc2cccc(C(F)(F)F)c2)c1C` (stereo not drawn) [Compound I-096]: the midpoint of inhibition, the IC50, lay at 420 nM and the Ki is 130 nM.
On the same counts, the results for `CNCCCn1c(C(C)(C)C)cc(S(=O)(=O)Nc2cccc(C(F)(F)F)c2)c1C` [Compound I-117] are 9200 nM and 2500 nM.
